Source: PMC5012625 (International Journal of Nanomedicine, 2016)

Experiments:
[1] = Particle size and surface charge by dynamic light scattering; assay type: physicochemical; conditions: dynamic light scattering analyzer, Nano ZS, mean ± SD
[2] = Pharmacokinetic study in rats; assay type: in vivo; conditions: female, Sprague Dawley, rat, plasma

Row | Molecule | Zeta potential [1] | AUC(0-inf) ([2]; 0.1 mg kg^−1) [ng·h/mL] | AUC(0-t) ([2]; 0.1 mg kg^−1) [ng·h/mL] | Cmax ([2]; 0.1 mg kg^−1) [ng/mL] | Tmax ([2]; 0.1 mg kg^−1) [min] | F rel ([2]; 0.1 mg/kg) [%] | AUC(0-inf) ([2]; sc, 0.02 mg kg^−1) [ng·h/mL] | AUC(0-t) ([2]; sc, 0.02 mg kg^−1) [ng·h/mL] | Cmax ([2]; sc, 0.02 mg kg^−1) [ng/mL] | Tmax ([2]; sc, 0.02 mg kg^−1) [min]
1 | lysine-linked deoxycholic acid [LysDOCA] | 6.27±1.29 | – | – | – | – | – | – | – | – | –
2 | CC[C@H](C)[C@H](NC(=O)[C@H](CCC(=O)O)NC(=O)[C@H](CO)NC(=O)[C@@H](NC(=O)[C@@H](N)CO)C(C)C)C(=O)N[C@@H](CCC(N)=O)C(=O)N[C@@H](CC(C)C)C(=O)N[C@@H](CCSC)C(=O)N[C@@H](Cc1cnc[nH]1)C(=O)N[C@@H](CC(N)=O)C(=O)N[C@@H](CC(C)C)C(=O)NCC(=O)N[C@@H](CCCCN)C(=O)N[C@@H](Cc1cnc[nH]1)C(=O)N[C@@H](CC(C)C)C(=O)N[C@@H](CC(N)=O)C(=O)N[C@@H](CO)C(=O)N[C@@H](CCSC)C(=O)N[C@@H](CCC(=O)O)C(=O)N[C@@H](CCCN=C(N)N)C(=O)N[C@H](C(=O)N[C@@H](CCC(=O)O)C(=O)N[C@@H](Cc1c[nH]c2ccccc12)C(=O)N[C@@H](CC(C)C)C(=O)N[C@@H](CCCN=C(N)N)C(=O)N[C@@H](CCCCN)C(=O)N[C@@H](CCCCN)C(=O)N[C@@H](CC(C)C)C(=O)N[C@@H](CCC(N)=O)C(=O)N[C@@H](CC(=O)O)C(=O)N[C@H](C(=O)N[C@@H](Cc1cnc[nH]1)C(=O)N[C@@H](CC(N)=O)C(=O)N[C@@H](Cc1ccccc1)C(=O)O)C(C)C)C(C)C [rhPTH (1-34)] | – | 0.0448 | 0.0309 | 0.0392 ± 0.0198 | 30 | 1.06 ± 0.85 | 0.603 | 0.585 | 0.711 ± 0.0978 | 15
